Earlier results, collected in patent US10300042B2, “Apremilast for the treatment of a liver disease or a liver function abnormality” (Celgene Corporation, priority 2014, dated 2019).

Tested on: alanine aminotransferase and/or aspartate aminotransferase
Conditions: animal models and human studies; cited from earlier work

CC(=O)CCCCn1c(=O)c2c(ncn2C)n(C)c1=O [Pentoxifylline]
Liver Function Tests abnormalities (ALT, AST levels): decreasing levels of alanine aminotransferase and/or aspartate aminotransferase
